Among the data in patent US11884653B2, “Arylnaphthalene compounds as vacuolar-ATPase inhibitors and the use thereof” (Purdue Research Foundation, priority 2018, dated 2024) are IC50 values, retold here.

Structures are written as SMILES.

In this experiment the target is V-ATPase. Put plainly: acridine orange quenching (proton-pumping function of V-ATPase) in isolated HEK293 vesicles. Particulars: read-out: AO Quenching IC50. In kind it is biochemical. The protocol: To assess if ability of diphyllin and derivatives to inhibit endosomal acidification is due to the expected ability of diphyllin to inhibit V-ATPase activity, compounds were assayed for inhibition of both the proton-pumping and ATPase functions of the isolated V-ATPase enzyme. V-ATPase containing vesicles were isolated from HEK293 cells following methods similar to that found in […]. (Zoncu, R. et al., Science 2011, 334, 678-683). To determine the effect of compounds upon the proton pumping function of V-ATPase, isolated vesicles were incubated with acridine orange and the compound or vehicle for 1 h prior to the addition of ATP which initiated pump activity. The quenching of the 530 nm emission of acridine orange was measured over 1h before addition of nigericin to relax the proton gradient within vesicles. IC50 values against the proton-pumping function of V-ATPase could be assessed by quantifying the change in Acridine Orange (AO) fluorescence immediately before and after the addition of nigericin.
HEK293 vesicle isolation-Cells were grown to confluency in a 175 cm^2 flask (Corning) before growth media was removed and replaced with serum-free DMEM for 2 h. 1 μM FCCP in DMEM was then added for 15 min before cells were scrapped form the plate and pelleted at 1000×g for 5 min. […]

For the compound `COc1cc2c(OCCCN3CCN(CCO)CC3)c3c(c(-c4ccc5c(c4)OCO5)c2cc1OC)C(=O)OC3` [Compound 2i, 9-(benzo[d][1,3]dioxol-5-yl)-4-(3-(4-(2-hydroxyethyl)piperazin-1-yl)propoxy)-6,7-dimethoxynaphtho[2,3-c]furan-1(3H)-one], the IC50 was found to be 61 ± 2.84 nM.
